Assay results reported in publication PMC3283556, “The Activities of Current Antimalarial Drugs on the Life Cycle Stages of Plasmodium: A Comparative Study with Human and Rodent Parasites” (PLoS Medicine, 2012).
Like-named read-outs stand apart in the source and are kept apart here.

Experiments:
[1] = system: P. falciparum asexual blood stage parasites (strains NF54, D6, K1, W2, 7G8, TM90C2A, V1/S); experiment: [3H]-hypoxanthine incorporation growth inhibition assay, asexual blood stage; assay type: cell-based, Plasmodium falciparum; settings: for IC50: Plasmodium falciparum; for resistance / retention of potency against resistant strains: drug-resistant strains; for fold reduction in potency: against all drug-resistant strains containing the mutated chloroquine transporter (PfCRT)
Experimental: In vitro antimalarial activity was measured using the [^3H]-hypoxanthine incorporation assay with various strains of P. falciparum obtained from MR4. Results were expressed as the concentration resulting in 50% inhibition (IC50).
The half-maximal inhibitory concentrations (IC50) were determined for each molecule (Table S2).
Figure 2 The potencies of selected antimalarials against asexual blood stages. Main classes of antimalarials were tested against the blood stage of seven Plasmodium falciparum strains in the [^3H]hypoxanthine incorporation assay as described in Vennerstrom et al.. The strains tested here (obtained from MR4) were two drug-sensitive strains NF54 and D6 and five drug-resistant strains: K1, resistant to chloroquine (CQ) and pyrimethamine (PYR), origin Thailand, carries mutations in genes pfmdr1, pfcrt, pfdhfr, pfdhps; W2, resistant to CQ, PYR, quinine, cycloguanil, and sulfadoxine, origin Vietnam; 7G8, resistant to CQ and PYR, origin Brazil; TM90C2A, resistant to CQ, PYR, and MFQ, origin Thailand; and V1/S, resistant to CQ, PYR and cycloguanil, origin Vietnam. Results are expressed as the concentration resulting in 50% growth inhibition (IC50).Values are means of ≥3 independent experiments. (A) Endoperoxides. (B) 4-AQs. (C) 8-AQs and amino alcohols. (D) Antifolates, antibiotics, and others.

[2] = system: P. yoelii liver stage parasites (liver schizonts); experiment: P. yoelii liver stage assay in HepG2 cells (EEF immunofluorescence); assay type: cell-based, Plasmodium yoelii; settings: for IC50: Plasmodium yoelii; for potency range against liver stages: dose response
Experimental: (§1) 7.5×10^3 HepG2 cells in 50 µl of medium (1.5×10^5 cells/ml) were seeded in 384 well plates (Aurora 384 IQ-EB Black/Clear Plates) 20–26 h prior to the actual infection. 2 h prior to infection, 50 nl of compound in DMSO (0.1% final DMSO concentration per well) were transferred with a PinTool (GNF Systems) into the assay plates (10 µM final concentration). P. yoelii sporozoites were freshly dissected from infected A. stephensi mosquito salivary glands and filtered twice with a 40-µm strainer. The HepG2 cells were then infected with 8×10^3 sporozoites per well. After infection and 1-h incubation at 37°C, the cultures were washed, new media and compound added, and further incubated with 5-fold increased concentration of penicillin/streptomycin for 48 h at 37°C before exoerythrocytic forms (EEFs) quantification of infected cells by immunofluorescence.
After washing with 1×PBS and fixation of the cells with 4% paraformaldehyde solution (EMS), membranes were permeabilised with 0.5% Triton-X-100 (Thermo Fisher Scientific) and EEFs were stained using a mouse polyclonal serum raised against the Plasmodium heat shock protein 70 (HSP70), an Alexa goat antimouse IgG, Fca-specific DyLight 649 secondary antibody (Invitrogen), and the Hoechst 33342 nucleic acid dye (Invitrogen). Stained EEFs were then quantified using the Opera Confocal High Content Screening system (PerkinElmer). Images were collected using a 20× magnification at a binning of 2 using a 365 Xeon arc lamp illumination to detect the nuclei and 635-nm laser line to excite DyLight649.
(§2) High-content imaging of infected HepG2-CD81 cells was performed as described in Meister et al.. Wells were analysed using a custom Acapella (PerkinElmer) script parameterized for this assay. In brief, images from fields inside the well were first discarded as out of focus when the intensity in the nuclear area was too low. Then hepatic cells were counted by detecting the nuclei labelled with Hoechst 33342 and parasites were segmented using the HSP70 immuno-labelling. Morphology-based (e.g., area, roundness) and intensity-based features were calculated for each object detected including the hepatocyte nuclei and the parasites. Parasitemia was set as the ratio between parasite number (Alexa fluor positive) and the hepatocyte nuclei count, determined at the same time.
(§3) When an infected mosquito bites a host, ∼100 sporozoites may be injected into the dermis from where they rapidly invade liver cells,[33]. This infective step represents the second bottleneck during transmission and therefore another potentially vulnerable point for intervention. In the absence of a practical liver stage assay measuring the formation of P. falciparum/P. vivax liver schizonts, an equivalent assay was developed in P. yoelii and used to assess the activity of the collection of molecules against this specific stage. Specifically, P. yoelii sporozoites were dissected from the salivary glands of infected mosquitoes and were allowed to invade human hepatocarcinoma cells expressing the CD81 protein. The development of the liver schizonts was monitored by immunofluorescence staining using an HSP70 antibody specific to the parasite (Figure 4A).
Figure 4 Validation and results of anti-infectives tested against P. yoelii liver stage parasites. (A) Opera-generated images from a time point experiment using a 20× objective lens. P. yoelii parasites (red) were visualized using a mouse polyclonal HSP70 antibody, and the HepG2 cells (green) were stained with Hoechst 33342 nucleic acid dye. […] (B) A dose response plot with atovaquone from data generated from the Opera imaging system. The median areas of compound-treated parasites were compared to untreated DMSO controls to determine the degree of inhibition.

HepG2 cells = experiment: Growth retardation of HepG2 cells; settings: for IC50: Homo sapiens, HepG2, read-out: IC50 HepG2
Experimental: as §1, §2, §3

[3] = system: P. falciparum mature gametocytes / male gamete exflagellation; experiment: P. falciparum exflagellation assay; assay type: cell-based, Plasmodium falciparum; settings: for inhibition at 10 µM: Plasmodium falciparum
Experimental: After 24 h, exflagellation was triggered by a temperature decrease to ∼21°C and observed 20 min later under the microscope. Highly motile exflagellation centres were recorded for ∼50–150 adjacent fields of view and reported per 10,000 RBCs.
(A) Assays examined exflagellation (P. falciparum), ookinete formation (P. berghei), or oocyst formation (P. falciparum). All antimalarials were screened at 10 µM. (B) The biological content of the in vitro P. berghei ookinete assay spans gamete formation, fertilization, zygote development, and ookinete formation. […] (D) The in vitro P. falciparum exflagellation assay exposes mature gametocytes to antimalarials for 24 h before triggering exflagellation. […] All experiments in triplicate. (E) The in vivo P. falciparum oocyst assay differs from the P. berghei oocyst assay in that mature gametocytes were exposed to the antimalarials in culture for 24 h before feeding to mosquitoes.

[4] = HepG2, development of P. yoelii liver schizonts following infection of HepG2 cells, read-out: IC50 Parasite
[5] = HepG2, dose response, read-out: IC50 liver stage
[6] = HepG2, box linked to liver schizont, read-out: IC50 (liver schizont, Figure 5)
[7] = HepG2, dose response, median parasite area (Opera), read-out: IC50 liver stage
[8] = asexual blood stage, all parasite lines, read-out: IC50
[9] = 10 µM, 24 h exposure of mature gametocytes
[10] = 10 μM, box linked to gametocytes/exflagellation, read-out: Inhibition at 10 μM (gametocytes/exflagellation, Figure 5)
[11] = asexual blood stage, both drug-resistant and -sensitive strains, read-out: IC50
[12] = read-out: inhibition of exflagellation, 10 µM, 24 h exposure of mature gametocytes
[13] = asexual blood stage, all parasite lines

`OC(c1cc(C(F)(F)F)nc2c(C(F)(F)F)cccc12)C1CCCCN1` (racemic) [racemic mefloquine, mefloquine] gave an IC50 [1] of under 10 nM, an IC50 [2, 4] of 1690 ± 1450 nM and an IC50 (HepG2 cells) of 1730 ± 600 nM. For the same molecule, the “CI (cytotoxicity index)” value (HepG2 cells; human, 48 h) was 1.02.

For `CCN(CC)CCCNc1ccnc2cc(Cl)ccc12` [AQ-13], the IC50 [2, 5] was under 3000 nM.

With `CCc1nc(N)nc(N)c1OCCCOc1ccccc1CCC(=O)O` [P218] the IC50 [2, 6] was under 1000 nM and the IC50 [2, 7] was under 10 nM.

With `N=C(N)c1ccc(OCCCCCOc2ccc(C(=N)N)cc2)cc1` [Pentamidine] the IC50 [2, 4] was 2460 ± 570 nM, the IC50 (HepG2 cells) was 3750 ± 1100 nM and the “CI (cytotoxicity index)” value (HepG2 cells; human, 48 h) was 1.52.

`CCN(CC)Cc1cc(Nc2ccnc3cc(Cl)ccc23)ccc1O` [amodiaquine] was tested, and the IC50 [1, 8] was 2 to 10 nM, the “resistance / retention of potency against resistant strains” value (from here on “resistance / retention of potency”) [1] was “do not lose potency when tested against chloroquine resistant strains” and the “effect on exflagellation (words)” value [3, 9] was “inhibited P. falciparum exflagellation”. For the same molecule, the inhibition at 10 µM [3, 10] was over 60% and the IC50 [2, 5] was under 3000 nM.

In the case of `C[C@@H]1CC[C@H]2[C@@H](C)C(=O)O[C@@H]3O[C@@]4(C)CC[C@@H]1[C@]32OO4` [artemisinin], the IC50 [1, 8] is reported as 1 to 15 nM.

With `C[C@H]1[C@H](N2CCS(=O)(=O)CC2)O[C@@H]2O[C@@]3(C)CC[C@H]4[C@H](C)CC[C@@H]1[C@@]24OO3` [artemisone] the IC50 [2, 6] was under 1000 nM and the IC50 [2, 7] was under 100 nM.

With `C[C@H]1[C@H](OC(=O)CCC(=O)O)O[C@@H]2O[C@@]3(C)CC[C@H]4[C@H](C)CC[C@@H]1[C@@]24OO3` [artesunate] the IC50 [1, 8] was 1 to 15 nM and the IC50 [2, 6] was under 1000 nM.

With `CC[C@H]1OC(=O)[C@H](C)[C@@H](O[C@H]2C[C@@](C)(OC)[C@@H](O)[C@H](C)O2)[C@H](C)[C@@H](O[C@@H]2O[C@H](C)C[C@H](N(C)C)[C@H]2O)[C@](C)(O)C[C@@H](C)CN(C)[C@H](C)[C@@H](O)[C@]1(C)O` [azithromycin] the IC50 [1, 11] was 1000 to 10000 nM.

`COc1cc(NC(C)CCCNC(C)=C2CCOC2=O)c2ncccc2c1` (stereo not drawn) [bulaquine] showed an IC50 [1, 11] of 500 to 2500 nM.

With `CCN(CC)CCCC(C)Nc1ccnc2cc(Cl)ccc12` (stereo not drawn) [chloroquine] the “fold reduction in potency” value [1] was 6–100 fold and the “enhancement (stimulation) of exflagellation” value (shortened to “enhancement (stimulation)”) [3, 9] was “at least 20%”.

For `CC1(C)N=C(N)N=C(N)N1c1ccc(Cl)cc1` [cycloguanil], the IC50 ([1]; Erythrocyte, read-out: IC50 (erythrocyte schizont, Figure 5), box linked to blood stage schizont) was under 4 nM, the “fold loss of potency” value ([1]; between sensitive and resistant strains) was at least 100 fold and the IC50 [2, 6] was under 1000 nM. The IC50 [2, 7] was under 10 nM.

For `CC(=O)N(O)CCCCCNC(=O)CCC(=O)N(O)CCCCCNC(=O)CCC(=O)N(O)CCCCCN` [deferoxamine], the IC50 [2, 6] was under 1000 nM and the “potency range against liver stages” value [2] was “submicromolar potencies”.

`C[C@]12CC[C@H](O)CC1=CC[C@@H]1[C@@H]2CC[C@]2(C)C(=O)CC[C@@H]12` [dehydroepiandrosterone] showed an IC50 ([1]; asexual blood stage, both drug-resistant and -sensitive strains) of 1000 to 10000 nM.

Molecule `CCN(CC)CCCC(C)Nc1cc(OC)cc2cccnc12` (stereo not drawn) [diethylprimaquine] has an IC50 [1, 11] of 500 to 2500 nM and an inhibition at 10 µM [3, 12] of over 70%.

For `CCN(CCO)CCCC(C)Nc1ccnc2cc(Cl)ccc12` (stereo not drawn) [hydroxychloroquine], the “fold reduction in potency” value [1] was 6–100 fold and the “enhancement (stimulation)” value [3, 9] was “at least 20%”.

In the case of `CN(C)c1ccc2nc3ccc(=[N+](C)C)cc-3sc2c1` [methylene blue], the IC50 [2, 6] is reported as under 1000 nM and the IC50 [2, 7] is reported as under 100 nM.

In the case of `CC(C)(C)NCc1cc(Nc2ccnc3cc(Cl)ccc23)c2c(c1O)CCCC2` [naphthoquine], the IC50 [1, 13] is reported as 2 to 10 nM, the “resistance / retention of potency” value [1] is reported as “do not lose potency when tested against chloroquine resistant strains” and the IC50 [2, 6] is reported as under 1000 nM. For the same molecule, the IC50 [2, 5] was under 3000 nM.

`Clc1ccc2c(N3CCN(CCCN4CCN(c5ccnc6cc(Cl)ccc56)CC4)CC3)ccnc2c1` [piperaquine] was tested, and the IC50 [1, 13] was 2 to 10 nM and the “resistance / retention of potency” value [1] was “do not lose potency when tested against chloroquine resistant strains”.

With `COc1cc(NC(C)CCCN)c2ncccc2c1` (stereo not drawn) [primaquine] the IC50 [1] was 500 to 2500 nM and the “enhancement (stimulation)” value [3, 9] was 15%.

`[H]/N=C(\N/C(=N/[H])Nc1ccc(Cl)cc1)NC(C)C` [proguanil] showed an IC50 [1, 11] of 1000 to 10000 nM, an IC50 [2, 4] of 11800 ± 5190 nM and an IC50 (HepG2 cells) of 15400 ± 3090 nM. For the same molecule, the “CI (cytotoxicity index)” value (HepG2 cells; IC50 HepG2 compared to IC50 parasite) was 1.31.

`C=C[C@H]1C[N@@]2CC[C@H]1C[C@@H]2[C@@H](O)c1ccnc2ccc(OC)cc12` [quinidine] was tested, and the IC50 [2, 6] was under 1000 nM and the “potency range against liver stages” value [2] was “submicromolar potencies”.

Work on `Cc1cc2nc3c(=O)[nH]c(=O)nc-3n(C[C@H](O)[C@H](O)[C@H](O)CO)c2cc1C` [riboflavin] yielded an IC50 [1, 11] of 1000 to 10000 nM.

With `Cc1cc(NS(=O)(=O)c2ccc(N)cc2)no1` [sulfamethoxazole] the inhibition at 10 µM [3, 12] was over 80% and the inhibition at 10 µM [3, 10] was over 60%.

`CC(C)(C)NCc1ccc(Nc2ccnc3cc(Cl)ccc23)cc1O` [tert-butyl-isoquine] was tested, and the IC50 [1, 13] was 2 to 10 nM, the “resistance / retention of potency” value [1] was “do not lose potency when tested against chloroquine resistant strains” and the “effect on exflagellation (words)” value [3, 9] was “inhibited P. falciparum exflagellation”. For the same molecule, the “effect on exflagellation (words)” value ([3]; 10 µM, 24 h exposure of mature gametocytes, listed as tert-butyl isoquine) was “inhibited exflagellation totally” and the inhibition at 10 µM [3, 10] was over 60%.

`COc1cc(Cc2cnc(N)nc2N)cc(OC)c1OC` [trimethoprim] was tested, and the IC50 [1, 11] was 1000 to 10000 nM.
